According to patent publication US20090281157A1, “Active Ingredient Combinations With Insecticidal and Acaricidal Properties” (Bayer Cropscience AG, priority 2006, published 2009):

Columns and labels:
Type in all cases: in vivo
Myzus persicae = Myzus persicae test (spray on infested cabbage leaves)
Description: (§1) To produce a suitable preparation of active compound, 1 part by weight of active compound is mixed with the stated amounts of solvents and emulsifier, and the concentrate is diluted with emulsifier-containing water to the desired concentration.
Cabbage leaves (Brassica oleracea) which are heavily infested by the Green peach aphid (Myzus persicae), are treated by spraying with the active compound preparation of the desired concentration.
(§2) After the desired period of time, the kill in % is determined. 100% means that all aphids have been killed; 0% means that none of the aphids have been killed. The kill rates determined are entered into Colby's formula.

Aphis gossypii = Aphis gossypii test (dipped cotton leaves)
Description: (§3) To produce a suitable preparation of active compound, 1 part by weight of active compound is mixed with the stated amounts of solvent and emulsifier, and the concentrate is diluted with emulsifier-containing water to the desired concentration.
Cotton leaves (Gossypium herbaceum) which are heavily infested by the cotton aphid (Aphis gossypii) are treated by being dipped into the active compound preparation of the desired concentration.
as §2

Tetranychus urticae = experiment: Tetranychus test (OP-resistant/spray treatment) on bean leaf disks
Description: as §3
Disks of bean leaves (Phaseolus vulgaris) which are infested by all stages of the greenhouse red spider mite (Tetranychus urticae) are sprayed with an active compound preparation of the desired concentration.
After the desired period of time, the activity in % is determined. 100% means that all spider mites have been killed; 0% means that none of the spider mites have been killed.

Phaedon cochleariae = Phaedon cochleariae larvae test (sprayed cabbage leaves)
Description: as §1
Cabbage leaves (Brassica oleracea) are treated by spraying with the active compound preparation of the desired concentration and are populated with larvae of the mustard beetle (Phaedon cochleariae) while the leaves are still moist.
After the desired period of time, the kill in % is determined. 100% means that all beetle larvae have been killed; 0% means that none of the beetle larvae have been killed. The kill rates determined are entered into Colby's formula.

Spodoptera frugiperda = Spodoptera frugiperda larvae test (sprayed cabbage leaves)
Description: as §1
Cabbage leaves (Brassica oleracea) are treated by spraying with the active compound preparation of the desired concentration and are populated with larvae of the armyworm (Spodoptera frugiperda) while the leaves are still moist.
After the desired period of time, the kill in % is determined. 100% means that all caterpillars have been killed; 0% means that none of the caterpillars have been killed. The kill rates determined are entered into Colby's formula.

CC1(C)C(/C=C(\Cl)C(F)(F)F)C1C(=O)OC(C#N)c1cccc(Oc2ccccc2)c1 [L-cyhalothrin, lambda-cyhalothrin]
Kill in % after 1d (Myzus persicae; 0.16 g/ha): 10% | Kill in % after 1d (Aphis gossypii; 0.16 ppm): 20% | Kill in % after 6d (Tetranychus urticae; 0.032 g/ha): 0%

CC1(C)C(C=C(Cl)Cl)C1C(=O)OC(C#N)c1cccc(Oc2ccccc2)c1 (stereo not drawn) [alpha-cypermethrin]
Kill in % after 6d (Phaedon cochleariae; 0.8 g/ha): 67%

Cc1c(COC(=O)C2C(/C=C(\Cl)C(F)(F)F)C2(C)C)cccc1-c1ccccc1 (stereo not shown) [bifenthrin]
Kill in % after 1d (Myzus persicae; 0.0064 g/ha): 0% | Kill in % after 6d (Spodoptera frugiperda; 0.8 g/ha): 0%

CO[C@H]1CC[C@]2(CC1)NC(=O)C(c1cc(C)ccc1C)=C2O [compound (I)]
Kill in % after 1d (Aphis gossypii; 4 ppm): 0%

CCOC(=O)OC1=C(c2cc(C)ccc2C)C(=O)N[C@]12CC[C@@H](OC)CC2 [compound (II)]
Kill in % after 1d (Myzus persicae; 0.8 g/ha): 20% | Kill in % after 1d (Myzus persicae; 20 g/ha): 0% | Kill in % after 6d (Spodoptera frugiperda; 20 g/ha): 17% | Kill in % after 6d (Spodoptera frugiperda; 100 g/ha): 67% | Kill in % after 6d (Phaedon cochleariae; 4 g/ha): 0% | Kill in % after 6d (Phaedon cochleariae; 20 g/ha): 0% | Kill in % after 6d (Phaedon cochleariae; 100 g/ha): 50% | Kill in % after 6d (Tetranychus urticae; 0.8 g/ha): 50% | Kill in % after 2d (Tetranychus urticae; 4 g/ha): 50% | Kill in % after 6d (Tetranychus urticae; 4 g/ha): 90% | Kill in % after 2d (Tetranychus urticae; 100 g/ha): 70%

CCOC(=O)OC1=C(c2cc(C)ccc2C)C(=O)NC12CCC(OC)CC2 (stereo not shown) [compound (II-a)]
Kill in % after 1d (Myzus persicae; 0.8 g/ha): 20% | Kill in % after 1d (Myzus persicae; 20 g/ha): 0% | Kill in % after 6d (Spodoptera frugiperda; 20 g/ha): 17% | Kill in % after 6d (Spodoptera frugiperda; 100 g/ha): 50% | Kill in % after 6d (Phaedon cochleariae; 4 g/ha): 0% | Kill in % after 6d (Phaedon cochleariae; 20 g/ha): 0% | Kill in % after 6d (Phaedon cochleariae; 100 g/ha): 83% | Kill in % after 6d (Tetranychus urticae; 0.8 g/ha): 60% | Kill in % after 2d (Tetranychus urticae; 4 g/ha): 30% | Kill in % after 6d (Tetranychus urticae; 4 g/ha): 90% | Kill in % after 2d (Tetranychus urticae; 100 g/ha): 40%

COC1CCC2(CC1)NC(=O)C(c1cc(C)ccc1C)=C2O (stereo not shown) [compound (Ia)]
Kill in % after 1d (Aphis gossypii; 4 ppm): 0%

CC1(C)C(C=C(Cl)Cl)C1C(=O)OC(C#N)c1cccc(Oc2ccccc2)c1 (stereo not shown) [cypermethrin]
Kill in % after 6d (Spodoptera frugiperda; 0.8 g/ha): 0% | Kill in % after 6d (Phaedon cochleariae; 0.8 g/ha): 17%

CC1(C)[C@H](C(=O)O[C@H](C#N)c2cccc(Oc3ccccc3)c2)[C@@H]1C=C(Br)Br [deltamethrin]
Kill in % after 2d (Tetranychus urticae; 0.032 g/ha): 10%

CC1(C)[C@H](/C=C(\Cl)C(F)(F)F)[C@@H]1C(=O)O[C@H](C#N)c1cccc(Oc2ccccc2)c1 [gamma-cyhalothrin]
Kill in % after 1d (Myzus persicae; 0.0064 g/ha): 0%

CC1(C)C(C=C(Cl)Cl)C1C(=O)OC(C#N)c1cccc(Oc2ccccc2)c1 (stereo not shown) [zeta-cypermethrin]
Kill in % after 6d (Phaedon cochleariae; 0.16 g/ha): 0%

CC1(C)C(C=C(Cl)Cl)C1C(=O)OC(C#N)c1ccc(F)c(Oc2ccccc2)c1 (stereo not drawn) [β-cyfluthrin, betacyfluthrin]
Kill in % after 1d (Myzus persicae; 0.0064 g/ha): 0% | Kill in % after 6d (Tetranychus urticae; 0.0064 g/ha): 0%
